Assay results as given in ChEMBL document CHEMBL1153973, “Regioisomerism-dependent TLR7 agonism and antagonism in an imidazoquinoline” (Bioorg Med Chem Lett, 2009).

How the values were obtained:
Toll-like receptor 7 [1] = target: T1, Toll-like receptor 7 (Homo sapiens, UniProt Q9NYK1); assay: Agonist activity at TLR7 expressed in HEK293 cells assessed as increase in NF-kappaB activation at 25 ug/mL by SEAP assay; format: functional, cell-based
T1 sequence (Q9NYK1 whole entry): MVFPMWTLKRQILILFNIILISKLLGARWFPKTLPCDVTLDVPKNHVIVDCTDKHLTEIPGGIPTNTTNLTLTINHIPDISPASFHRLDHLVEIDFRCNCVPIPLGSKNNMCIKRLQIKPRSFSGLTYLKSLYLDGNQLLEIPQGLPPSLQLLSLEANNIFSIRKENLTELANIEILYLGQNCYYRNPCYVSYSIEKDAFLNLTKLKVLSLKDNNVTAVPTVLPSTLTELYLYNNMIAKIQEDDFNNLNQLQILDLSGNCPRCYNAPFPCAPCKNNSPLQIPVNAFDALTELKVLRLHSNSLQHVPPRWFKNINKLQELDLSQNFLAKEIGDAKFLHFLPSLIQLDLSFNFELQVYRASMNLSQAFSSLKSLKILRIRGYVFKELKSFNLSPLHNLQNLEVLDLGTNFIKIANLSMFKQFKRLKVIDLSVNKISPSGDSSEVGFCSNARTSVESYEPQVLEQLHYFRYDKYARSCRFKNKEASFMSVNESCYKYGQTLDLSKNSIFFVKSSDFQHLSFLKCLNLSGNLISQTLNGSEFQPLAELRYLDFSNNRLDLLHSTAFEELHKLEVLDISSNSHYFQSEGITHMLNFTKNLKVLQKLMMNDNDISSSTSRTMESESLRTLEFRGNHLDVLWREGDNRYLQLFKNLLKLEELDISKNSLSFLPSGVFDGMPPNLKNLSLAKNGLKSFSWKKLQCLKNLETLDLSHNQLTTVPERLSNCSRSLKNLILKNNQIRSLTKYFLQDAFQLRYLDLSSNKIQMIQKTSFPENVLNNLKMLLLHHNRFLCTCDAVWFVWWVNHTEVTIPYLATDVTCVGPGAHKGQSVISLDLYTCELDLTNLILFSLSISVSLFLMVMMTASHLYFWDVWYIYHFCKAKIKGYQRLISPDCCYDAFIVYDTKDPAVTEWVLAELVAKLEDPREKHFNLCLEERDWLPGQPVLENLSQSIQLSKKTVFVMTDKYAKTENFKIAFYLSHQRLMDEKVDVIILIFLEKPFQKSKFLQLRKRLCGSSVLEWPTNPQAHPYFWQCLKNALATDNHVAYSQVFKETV

Toll-like receptor 7 [2] = target: T1, Toll-like receptor 7

IC50 (Toll-like receptor 7 [1]) | IC50 (Toll-like receptor 7 [2]) [µM] | SMILES
Not Active | 25 | CCNCc1nc2c3ccccc3nc(N)c2n1CC(C)(C)O.O=C(O)C(F)(F)F.O=C(O)C(F)(F)F
 | 7.5 | CCNCc1nc2c3ccccc3ncc2n1CC(C)(C)O
